The values that follow come from publication PMC2695949, “Synthesis and Evaluation of Novel Organogermanium Sesquioxides As Antitumor Agents” (Bioinorganic Chemistry and Applications, 2009).

Series [1] concerns KB (human nasopharyngeal cancer) cells. The experiment in a line: MTT antitumor activity in vitro, KB cells. In kind it is cell-based. To be noted: 50 μg/mL, DMSO as solvent. The method, then: (§1) The antitumor activity in vitro was assayed by the MTT method using DMSO as solvent. The tumor inhibition yield and IC50 of the five organogermanium sesquioxides and Ge-132 against KB (human nasopharyngeal cancer), HCT (human colonic cancer), and Bel (human liver cancer) cells were measured.

Series [2] relates to HCT (human colonic cancer) cells. The experiment in a line: MTT antitumor activity in vitro, HCT cells. The series is classed as cell-based. As to conditions: 50 μg/mL, DMSO as solvent. The method, then:
as §1

Series [3] in a line: Biodistribution in nude mice bearing human colonic cancer xenografts. The series is classed as in vivo, Balb/c nude mice. To be noted: for Biodistribution, uptake: Tumor; for Biodistribution, uptake / T/NT (ratio of ID %/g of tumor over normal tissue): n = 3; for T/NT (ratio of ID %/g of tumor over normal tissue): 20 h. The method, then:
Experimental animals (Balb/c nude mice) were provided by Experimental Animal Department of Chinese Academy of Medical Sciences. The nude mice were implanted with human colonic carcinoma cells (LoVo cells). When the tumor size was about 1 cm, the mice were used for the experiment.
Twelve nude mice bearing human colonic cancer xenografts were injected in tail vein with 555~740 kBq of ^99mTc labeled compound 5. Three animals were sacrified at 1-hour, 3-hour, 6-hour, and 20-hour postinjection, respectively. Tissues and organs were excised, rinsed, weighted, and counted in a γ counter. The uptake percentage of the injected dose per gram of the measured organ (ID %/g) and the ratio of ID %/g of tumor over normal tissues (T/NT) were calculated.

Series [4] is described as follows: Solubility of the powders. The series is classed as physicochemical. To be noted: 2 mol/L of NaOH solution.
The test system of the next series is KB, HCT, and Bel cells. In words: MTT antitumor activity in vitro, cell line not singled out. The series is classed as cell-based, human. To be noted: bioassay at 1, 10, and 50 μg/mL. The method, then: (§2) The antitumor activity in vitro was assayed by the MTT method using DMSO as solvent.
Series [5] relates to Bel (human liver cancer) cells. In words: MTT antitumor activity in vitro, Bel cells. The series is classed as cell-based. As to conditions: 50 μg/mL, DMSO as solvent. The method, then: as §2

For `NC(=S)NCC[CH2][Ge](=[O])[O][Ge](=[O])[CH2]CCNC(N)=S` [Compound 5, γ-thiocarbamido propyl germanium sesquioxide], the Inhibition yield was 92.9% in series [1], 84.9% in series [2] and 70.9% in series [5]. Moreover, the “Biodistribution, uptake” value was found to be 0.73 % ID/g in series [3] (1 h postinjection), 0.97 % ID/g in series [3] (3 h postinjection), 0.87 % ID/g in series [3] (6 h postinjection) and 0.62 % ID/g in series [3] (20 h postinjection). Further, the clearance in tumor result in series [3] (nude mice, tail vein injection) is recorded as “relatively low”. Besides, the “T/NT (ratio of ID %/g of tumor over normal tissue)” value is reported as 3.01 in series [3] (tumor versus Blood), 18.30 in series [3] (tumor versus Brain) and 5.81 in series [3] (tumor versus Muscle). In addition, the solubility entry in series [4] is “easily soluble”. The “antitumor activity against cancer cells (in words)” value (“antitumor activity” below) in the series on KB, HCT, and Bel cells is “certain activities”.
As for `O=C1NC(=O)C2C3OC(C[CH]3[Ge](=[O])[O][Ge](=[O])[CH]3CC4OC3C3C(=O)NC(=O)C43)C12` (centres unmarked) [Compound 2], the Inhibition yield in series [1], in series [2] and in series [5] was 0% in each case. For the same molecule, in the series on KB, HCT, and Bel cells, the “antitumor activity” value was “no antitumor activity”.
With `CCOC(=O)CCC(NC(=O)C[CH2][Ge](=[O])[O][Ge](=[O])[CH2]CC(=O)NC(CCC(=O)OCC)C(=O)OCC)C(=O)OCC` (centres unmarked) [Compound 4, Germanium Sesquioxide of Ethyl Glutamate], the Inhibition yield in series [1] was 0%; in series [2], 41.5%. Besides, the “antitumor activity” value with KB, HCT, and Bel cells is listed as “certain activities”.
On to `O=C(O)C[CH2][Ge](=[O])[O][Ge](=[O])[CH2]CC(=O)O` [Ge-132, carboxyethylgermanium sesquioxide, reference compound], for which the Inhibition yield worked out at 0% in series [1], 31.4% in series [2] and 0% in series [5].
As for `O=C1OC(=O)C2C3OC(C[CH]3[Ge](=[O])[O][Ge](=[O])[CH]3CC4OC3C3C(=O)OC(=O)C43)C12` (centres unmarked) [Compound 1], the Inhibition yield in series [1], in series [2] and in series [5] was 0% each time. The “antitumor activity” value with KB, HCT, and Bel cells was “no antitumor activity”.
Consider `NN1C(=O)C2C3C[CH]([Ge](=[O])[O][Ge](=[O])[CH]4CC5OC4C4C(=O)N(N)C(=O)C54)C(O3)C2C1=O` (centres unmarked) [Compound 3], for which the Inhibition yield in series [1], in series [2] and in series [5] was 0% in each case. Besides, in series [4], the solubility result is reported as “easily soluble”. In addition, the “antitumor activity” value with KB, HCT, and Bel cells is “no antitumor activity”.
